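Cells were grown in 96-well plates and exposed to each compound for 48 hours at five concentrations; endpoints were interpolated linearly between bracketing concentrations, or set to the highest concentration if not reached. GI50 marks 50% less growth. TGI is the concentration that stops growth completely.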
Legend:
Assay in all cases: DTP human tumour cell line panel, 48 h
NCI-H460 lung = system: NCI-H460 lung
UACC-257 melanoma = system: UACC-257 melanoma
SW-620 colon = system: SW-620 colon
NCI/ADR-RES ovarian = system: NCI/ADR-RES ovarian
BT-549 breast = system: BT-549 breast
MDA-MB-435 = system: MDA-MB-435
HL-60(TB) leukemia = system: HL-60(TB) leukemia
SF-295 CNS = system: SF-295 CNS
A549 NSCLC = system: A549 NSCLC
EKVX NSCLC = system: EKVX NSCLC

| Compound | TGI (NCI-H460 lung) [µM] | TGI (UACC-257 melanoma) [µM] | TGI (SW-620 colon) [µM] | TGI (NCI/ADR-RES ovarian) [µM] | TGI (BT-549 breast) [µM] | TGI (MDA-MB-435) [µM] | TGI (HL-60(TB) leukemia) [µM] | TGI (SF-295 CNS) [µM] | TGI (A549 NSCLC) [µM] | GI50 (UACC-257 melanoma) [µM] | GI50 (BT-549 breast) [µM] | GI50 (MDA-MB-435) [µM] | GI50 (HL-60(TB) leukemia) [µM] | TGI (EKVX NSCLC) [µM] | GI50 (NCI-H460 lung) [µM] | GI50 (SW-620 colon) [µM] | GI50 (NCI/ADR-RES ovarian) [µM] | GI50 (EKVX NSCLC) [µM] | GI50 (SF-295 CNS) [µM] | GI50 (A549 NSCLC) [µM] |
| --- | --- | --- | --- | --- | --- | --- | --- | --- | --- | --- | --- | --- | --- | --- | --- | --- | --- | --- | --- | --- |
| N=C(N)n1[nH]c2c(c1=O)CCC2 | > 100 | > 100 | > 100 | > 100 | > 100 | > 100 | > 100 | > 100 | > 100 |  |  |  |  |  |  |  |  |  |  |  |
| NCCCn1c2c(c3ccc([N+](=O)[O-])cc3c1=O)C(=O)c1cc3c(cc1-2)OCO3 |  | 3 |  |  | 1.76 | 3.28 |  |  |  | 0.372 | 0.164 | 0.592 | < 0.0155 |  |  |  |  |  |  |  |
| c1ccc(C(CCN2CCCC2)c2ccccn2)cc1 (stereo not drawn) | > 100 | > 100 | > 100 | > 100 | > 100 | > 100 |  | > 100 | > 100 |  |  |  |  | > 100 |  |  |  |  |  |  |
| COC(=O)C1(NC(=O)C(N)CC(=O)O)C(C)C1C (stereo not drawn) | > 100 | > 100 | > 100 | > 100 |  | > 100 | > 100 | > 100 | > 100 |  |  |  |  | > 100 |  |  |  |  |  |  |
| O=c1c2c([nH]c3cc4c(cc13)OCO4)-c1ccccc1CCC2 | > 50 | > 50 | > 50 | > 50 | > 50 | > 50 |  | > 50 | > 50 |  |  |  |  | > 50 |  |  |  |  |  |  |
| C=C(C)CC1=C(C(=S)NCCO[Si](C)(C)C(C)(C)C)C(OCC)(OCC)C1=O |  | 32.1 | 47 | > 100 |  | 41.9 | > 100 | 33.1 | 36.9 |  |  |  |  | 34.4 |  |  |  |  |  |  |
| O=C(/C=C/c1cccs1)c1ccsc1 | 60.4 | 52.3 | 75.2 | > 100 |  | 39.8 | 42.1 | > 100 | > 100 |  |  |  |  | > 100 |  |  |  |  |  |  |
| CCC(=N\NC(N)=S)/C(C)=N/O | > 100 | > 100 | > 100 | > 100 |  | > 100 |  | > 100 | > 100 |  |  |  |  | > 100 |  |  |  |  |  |  |
| CCN(CC)C(=O)c1c(N2CCOCC2)cc(N(CC)CC)oc1=O | > 100 | > 100 | > 100 |  |  |  | > 100 | > 100 | > 100 |  |  |  |  | > 100 |  |  |  |  |  |  |
| Oc1[nH]c2ccccc2c1N=NC(=S)N1CCCCCC1 | 5.28 | 5.88 | 9.23 | 1.42 |  | 3.71 |  | 3.86 | 6.57 |  |  |  |  | 6.8 |  |  |  |  |  |  |
| Oc1c(I)cc(I)cc1CNCCCN(Cc1ccccn1)Cc1ccccn1 | 2.78 | 3.39 | 2.41 | 4.29 |  | 2 | 2.51 | 1.74 | 3.82 | 1.21 |  | 0.997 | 1.08 | 2.38 | 1.2 | 1.04 | 1.44 | 1 | 0.885 | 1.32 |
| Cc1ccccc1NC(=S)N=Nc1c(O)[nH]c2ccccc12 | > 100 | > 100 | > 100 | > 100 |  | > 100 | > 100 | > 100 | > 100 |  |  |  |  | > 100 |  |  |  |  |  |  |
| CC(=O)OCC1OC(OCC2OC(N3C(=S)N[C@H]([C@@H](O)[C@H](O)[C@H](O)CO)[C@H]3O)C(OC(C)=O)C(OC(C)=O)C2OC(C)=O)C(OC(C)=O)C(OC(C)=O)C1OC(C)=O (stereo partly drawn) | > 100 |  | > 100 | > 100 |  | > 100 |  | > 100 | > 100 |  |  |  |  |  |  |  |  |  |  |  |
| C=CCC1NCCC2=C1C(S(=O)(=O)c1ccc(C)cc1)c1ccccc12 (stereo not drawn) | 26.2 | > 53.4 | 29.4 | 28.5 |  | 17.5 |  | 27.1 | 29.2 |  |  |  |  | 33.5 |  |  |  |  |  |  |
| Brc1cccc(C2(CCCC3(c4cccc(Br)n4)OCCO3)OCCO2)n1 | > 100 | > 100 | > 100 | > 100 | > 100 | > 100 |  | > 100 | > 100 |  |  |  |  | > 100 |  |  |  |  |  |  |
| CC(=O)O[C@H]1CC[C@@]2(C)C(=CC[C@@H]3[C@@H]2CC[C@]2(C)c4nc(N)c(C#N)cc4C[C@@H]32)C1 | > 100 | > 100 | > 100 |  | > 63.7 | > 100 | > 94.9 | > 100 | > 100 |  |  |  |  | > 86.9 |  |  |  |  |  |  |
| ClCc1c(-c2ccccc2)nn(-c2ccccc2)c1CCl |  | 34.1 | 5.21 | > 100 |  | 6.42 | 6.13 | 32.8 | 37.3 |  |  |  |  |  |  |  |  |  |  |  |
| Cc1nc2ccccc2c(=O)n1NC(=O)Cc1ccccc1 | > 100 | > 100 | > 100 |  | > 100 | > 100 | > 100 | > 100 | > 100 |  |  |  |  | > 100 |  |  |  |  |  |  |

| Compound | TGI (NCI-H460 lung) [µM] | TGI (UACC-257 melanoma) [µM] | TGI (SW-620 colon) [µM] | TGI (NCI/ADR-RES ovarian) [µM] | TGI (BT-549 breast) [µM] | TGI (MDA-MB-435) [µM] | TGI (HL-60(TB) leukemia) [µM] | TGI (SF-295 CNS) [µM] | TGI (A549 NSCLC) [µM] | GI50 (UACC-257 melanoma) [µM] | GI50 (BT-549 breast) [µM] | GI50 (MDA-MB-435) [µM] | GI50 (HL-60(TB) leukemia) [µM] | TGI (EKVX NSCLC) [µM] | GI50 (NCI-H460 lung) [µM] | GI50 (SW-620 colon) [µM] | GI50 (NCI/ADR-RES ovarian) [µM] | GI50 (EKVX NSCLC) [µM] | GI50 (SF-295 CNS) [µM] | GI50 (A549 NSCLC) [µM] |
| --- | --- | --- | --- | --- | --- | --- | --- | --- | --- | --- | --- | --- | --- | --- | --- | --- | --- | --- | --- | --- |
| O=C(c1ccc(Cl)cc1)N(C(=S)N1CCN(c2ccccn2)CC1)c1ccccc1 | > 100 | > 100 | > 100 |  |  |  | > 100 | > 100 | > 100 |  |  |  |  |  |  |  |  |  |  |  |
| CCCCNC(=S)/N=C/c1c(O)c2ccccc2oc1=O | > 100 | > 100 | > 100 | > 100 |  | > 100 |  | > 100 | > 100 |  |  |  |  | > 100 |  |  |  |  |  |  |
| O=C(CCc1cc(O)cc(O)c1)NCCc1ccc(O)c(O)c1 | > 100 | > 100 | > 100 | > 100 | > 100 | 52.8 |  | > 100 | > 100 |  |  |  |  | > 100 |  |  |  |  |  |  |
| Cc1cc2nc3n(c2cc1C)C(c1c(F)cccc1F)SC3 (stereo not drawn) | 38.5 | > 100 | 50.9 | 34.6 | 43.7 | 30.9 |  | 54.2 | 42.4 |  |  |  |  | 75.4 |  |  |  |  |  |  |
| Cc1ccc(NC(=O)c2cccc([N+](=O)[O-])c2O)c(C)c1 | > 100 | 66.2 | > 100 |  |  |  | 55.6 | 74.3 | 63.8 |  |  |  |  | 98.6 |  |  |  |  |  |  |
| O=C1C[C@H](c2ccccc2)C2(C(=O)c3ccccc3C2=O)[C@@H](c2ccccc2)C1 | > 100 |  |  | > 100 | 71.9 |  | > 100 | > 100 |  |  |  |  |  |  |  |  |  |  |  |  |
| COCC(=O)[C@]1(O)Cc2c(O)c3c(c(O)c2[C@@H](OC2CC(N)C(O)C(C)O2)C1)C(=O)c1c(OC)cccc1C3=O (stereo partly drawn) | 0.583 | 1.48 | 3.01 |  | 1.99 |  | 0.184 | 1.34 | 17.4 |  |  |  |  | 2.9 |  |  |  |  |  |  |
| O=C1CCC2=C(CCC2)N1CCc1ccc2c(c1)OCO2 | > 100 | > 100 | > 100 | > 100 | 85.4 |  | 55.7 | > 100 | > 100 |  |  |  |  | > 100 |  |  |  |  |  |  |
| c1ccc([C@H]2CN3CCSC3=N2)cc1 | > 100 | > 100 | > 100 | > 100 |  | > 100 | > 100 | > 100 | > 100 |  |  |  |  | > 100 |  |  |  |  |  |  |
| c1ccc(C(=NNc2nc3ccccc3[nH]2)c2ccccn2)nc1 | > 100 | 1.92 | > 100 | 0.583 | 97.9 | > 74 |  | 35.4 | > 89.9 |  |  |  |  | 3.38 |  |  |  |  |  |  |
| CC(O)(c1ccccc1)c1nccc2ccccc12 (stereo not drawn) | > 100 | > 100 | > 100 | > 100 | > 100 | 39.2 | > 100 | > 100 | > 100 |  |  |  |  |  |  |  |  |  |  |  |
| COc1ccc(OC)c(CNc2ccc(O)c(C(=O)NCCc3ccc(F)cc3)c2)c1 | > 100 | 41 | > 100 | > 100 | 73.6 | 8.34 |  | 51.7 | > 100 |  |  |  |  | 65.6 |  |  |  |  |  |  |
| Cc1cc(NC2=NCCO2)c2c(c1C)CCCC2 | 63 | 39.1 | > 100 | 73.1 |  | 39.5 | 33.2 | 31.8 | > 100 |  |  |  |  | > 100 |  |  |  |  |  |  |
| O=C(Nc1ccc2ccccc2c1)Nn1cnnc1 | > 100 | > 100 | > 100 |  | > 100 | > 100 | > 100 | > 100 | > 100 |  |  |  |  | > 100 |  |  |  |  |  |  |
| Cc1cc(S(=O)(=O)O)ccc1N=Nc1ccc(N=Nc2c(O)ccc3ccccc23)c(C)c1 |  | > 100 | > 100 | > 100 | > 100 | > 100 |  | > 100 | > 100 |  |  |  |  | > 100 |  |  |  |  |  |  |
| [N-]=[N+]=C1CNC(=O)NC1=O | > 100 | > 100 | > 100 | > 100 |  | > 100 | > 100 | > 100 | > 100 |  |  |  |  | > 100 |  |  |  |  |  |  |
| CC(C)(C)OC(=O)NC(CCCCNC(=O)OCc1ccccc1)C(=O)NC(CCCCNC(=O)OCc1ccccc1)C(=O)ON1C(=O)CCC1=O (stereo not drawn) |  | > 100 | > 100 |  | > 100 |  | > 100 |  | > 100 |  |  |  |  | > 100 |  |  |  |  |  |  |
| CC(=O)c1ccc(NC(=O)/C(=N\NC(N)=O)C(C#N)CC(C)(C)C=O)cc1 (stereo not drawn) | > 100 | > 100 | > 100 |  |  |  | > 100 | > 100 | > 100 |  |  |  |  | > 100 |  |  |  |  |  |  |

Reference: PubChem BioAssay (NCI)
